# Assay: Serum concentration of amphotericin B in rabbits after rectal administration of suppositories (HPLC)
# Settings: rabbit, in vivo, 10 mg/kg
# Protocol: The base Witepsol H-15 was melted at 45° C in a temperature-controlled bath. Equal portions of amphotericin B and dipotassium glycyrrhizinate were added and the mixture was quickly poured into suppository molds and allowed to solidify at room temperature. The target potency was 20 mg amphotericin B/g suppository.
# This procedure was repeated with ratios of 1:4 and 1:9 w/w amphotericin B:dispotassium glycyrrhizinate.
# These suppositories were tested on white male rabbits weighing from 2.6 to 3.2 kg that received water freely but otherwise fasted for 24 hours prior to administration. Amphotericin B was dosed in 10 mg (activity)/kg and positioned about 2 cm into the rectum. Blood samples of about 1.5 ml were collected from an ear vein of each rabbit at appropriate intervals and evaluated according to procedures in Nilsson-Ehle et al., "Quantitation of amphotericin B with use of High-Pressure Liquid Chromatography," J. Infectious Diseases, Vol. 135, No. 3 (1977).
smiles,measurement,value
"C[C@@H]1[C@H](O)[C@@H](C)/C=C/C=C/C=C/C=C/C=C/C=C/C=C/[C@H](O[C@@H]2O[C@H](C)[C@@H](O)[C@H](N)[C@@H]2O)C[C@@H]2O[C@](O)(C[C@@H](O)C[C@@H](O)[C@H](O)CC[C@@H](O)C[C@@H](O)CC(=O)O[C@H]1C)C[C@H](O)[C@H]2C(=O)O [Amph., amphotericin B]",concentration at 1 h,1 ng/mL
same,concentration at 3 h,2.3 ng/mL
same,concentration at 5 h,1.5 ng/mL
same,concentration at 7 h,1 ng/mL
same,concentration at 9 h,3.3 ng/mL
same,concentration at 11 h,2.7 ng/mL
same,concentration at 24 h,1.3 ng/mL
